# Test results published in patent publication US20220402867A1, “SULFO-SUBSTITUTED BIARYL COMPOUND OR SALT THEREOF, PREPARATION METHOD THEREFOR, AND USE THEREOF” (Shanghai Litedd Co., Ltd., priority 2019, published 2022).
# How the values were obtained:
# [1] = target: T1, RORγt (RORγ-LBD chimeric receptor) (Homo sapiens, UniProt P51449); experiment: Luciferase reporter gene assay of RORγt agonistic activity in HEK293T cells; type: cell-based; parameters: Emax: dose or concentration left out as unconfirmed; details: for EC50: HEK293T, GAL4 luciferase reporter, read-out: EC50; for Emax: HEK-293T
# T1 construct: host or cells: HEK293T
# T1 sequence (P51449 269-508 limits assumed): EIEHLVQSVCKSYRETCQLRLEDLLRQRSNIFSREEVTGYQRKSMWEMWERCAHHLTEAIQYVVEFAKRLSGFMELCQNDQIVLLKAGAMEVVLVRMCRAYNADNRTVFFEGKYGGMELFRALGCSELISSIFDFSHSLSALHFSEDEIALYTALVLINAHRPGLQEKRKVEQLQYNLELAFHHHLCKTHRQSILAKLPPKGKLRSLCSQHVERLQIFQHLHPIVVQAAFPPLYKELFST
# How it was run: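 EC50 derived from % activity (relative to positive control and vehicle) versus log concentration, using luciferase luminescence in transfected HEK293T cells. The cells carried a RORγ-LBD/GAL4 chimera plus a GAL4-promoter reporter; compounds were 3-fold serially diluted, 10 points from a 10 mM DMSO stock.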
# GST-RORγ LBD (263-509) = target: T2, GST-RORγ LBD (263-509) (Homo sapiens, UniProt P51449); experiment: TR-FRET assay of agonistic activity on RORγ receptor; type: biochemical; details: for EC50: TR-FRET, GST-RORγ LBD with Biotin-SRC1
# T2 construct: GST-RORγ LBD ((263-509) (produced at ChemPartner))
# T2 sequence (P51449 263-509): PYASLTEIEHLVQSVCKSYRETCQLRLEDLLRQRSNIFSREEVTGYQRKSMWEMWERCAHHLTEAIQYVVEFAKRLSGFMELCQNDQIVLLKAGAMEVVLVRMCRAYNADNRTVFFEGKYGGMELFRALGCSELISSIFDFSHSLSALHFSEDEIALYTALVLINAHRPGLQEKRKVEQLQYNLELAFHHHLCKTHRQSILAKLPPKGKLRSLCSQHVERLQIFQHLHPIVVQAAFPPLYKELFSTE
# How it was run: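 GST-RORγ LBD (75 nM solution) mixed 1:1 with Biotin-SRC1 (4 nM solution), then with Eu anti-GST and SA-APC; compounds in 10-point 3-fold series from 10 mM stock, duplicate.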
# human PBMC (Th17 cells) = experiment: Th17 differentiation and IL-17 secretion in human PBMC; type: cell-based; details: IL-17 ELISA after 48 hours; for Emax: maximum activation rate
# Experimental: Test procedure: PBMC cells were first thawed and plated, and then stimulated with stimulating factors (anti-hCD28: 5 μg/mL; rhTGF-β1: 5 ng/mL; rhIL-6: 20 ng/mL; rhIL-23: 10 ng/Ml) to differentiate to Th17, while adding different concentrations of compounds. All test compounds were serially diluted at 3-fold dilution with DMSO, with 8 serial dilutions starting from the maximum concentration 3 μM. The supermatants were collected after 48 hours for IL-17 ELISA detection, and compared with the solvent group, to determine the activation rate of the compounds on Th17 cells to secrete IL-17. EC50 values were fitted with Graphad8.0, and the TOP values fitted by the software was Emax %.
# [2] = Metabolic stability in mouse liver microsomes; type: in vitro ADME, CD-1 mice; details: for half-life: CD-1; for microsomal CLint: CD-1, 0.5 mg protein/mL
# How it was run: (§1)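 Compound incubated at 37 °C with 0.5 mg protein/mL liver microsomes plus cofactors in PBS, sampled at 0–60 min, quenched with cold acetonitrile and quantified by HPLC-MS/MS (n=3). Half-life and Clint (μL/min/mg) come from the slope of ln(% remaining) versus time.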
# [3] = Metabolic stability in human liver microsomes; type: in vitro ADME; details: for microsomal CLint: 0.5 mg protein/mL
# How it was run: as §1
# [4] = Pharmacokinetic (PK) assay in mice; type: in vivo; details: CD-1 mice
# How it was run: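 Plasma concentrations were quantified by UPLC-MS/MS in EDTA-K2 plasma collected from the saphenous vein over 0–24 h, and PK parameters were derived from them. Two groups of 3 CD-1 mice were used: 5 mg/kg oral gavage (DMSO/1% methylcellulose 1:99) and 1 mg/kg intravenous (5% DMSO/40% PEG400/55% (20% 3-CD)).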
# [5] = maximum activation rate, TOP of fitted curve
EC50 [1],Emax [1],EC50 (GST-RORγ LBD (263-509)),Emax (GST-RORγ LBD (263-509); [5]),% Remaining (T = 60 min) [2],half-life [2],microsomal CLint [2],half-life [3],microsomal CLint [3],% Remaining (T = 60 min) [3],Compound,EC50 (human PBMC (Th17 cells)),Emax (human PBMC (Th17 cells)),further results
124 nM,103%,5.9 nM,190%,70.7%,1.79 h,12.9 µL/min/mg,> 2.42 h,< 9.6 µL/min/mg,77.2%,"CCS(=O)(=O)c1ccc(C(CO)C(=O)Nc2cc(Cl)c(-c3ccc(S(=O)(=O)C4CC4)cc3)c(Cl)c2)cc1 (single isomer, unassigned) [Example 38, (S)—N-(2,6-dichloro-4′-(cyclopropylsulfonyl)-[1,1′-biphenyl]-4-yl)-2-(4-(ethylsulfonyl)phenyl)-3-hydroxypropionamide or (R)—N-(2,6-dichloro-4′-(cyclopropylsulfonyl)-[1,1′-biphenyl]-4-yl)-2-(4-(ethylsulfonyl)phenyl)-3-hydroxypropionamide]",22.8 nM,179%,–
93 nM,77.5%,9.9 nM,–,71.8%,1.95 h,11.8 µL/min/mg,2.4 h,9.6 µL/min/mg,71.1%,"CCS(=O)(=O)c1ccc(C(COC)C(=O)Nc2cc(Cl)c(-c3ccc(S(=O)(=O)C4CC4)cc3)c(Cl)c2)cc1 (single isomer, unassigned) [Example 40, (S)—N-(2,6-dichloro-4′-(cyclopropylsulfonyl)-[1,1′-biphenyl]-4-yl)-2-(4-(ethylsulfonyl)phenyl)-3-methoxypropionamide or (R)—N-(2,6-dichloro-4′-(cyclopropylsulfonyl)-[1,1′-biphenyl]-4-yl)-2-(4-(ethylsulfonyl)phenyl)-3-methoxypropionamide]",25.8 nM,224%,Emax % (GST-RORγ LBD (263-509); [5]): 199.3%
54 nM,71.3%,4.3 nM,200%,83.9%,> 2.42 h,< 9.6 µL/min/mg,1.69 h,13.7 µL/min/mg,62.3%,"CS(=O)(=O)c1ccc(C(CO)C(=O)Nc2cc(Cl)c(-c3ccc(S(=O)(=O)C4CC4)cc3)c(Cl)c2)cc1 (single isomer, unassigned) [Example 36, (S)—N-(2,6-Dichloro-4′-(cyclopropylsulfonyl)-[1,1′-biphenyl]-4-yl)-2-(4-(methylsulfonyl)phenyl)-3-hydroxypropionamide or (R)—N-(2,6-dichloro-4′-(cyclopropylsulfonyl)-[1,1′-biphenyl]-4-yl)-2-(4-(methylsulfonyl)phenyl)-3-hydroxypropionamide]",36.2 nM,169%,–

# Continued, compound first:
Compound,EC50 [1],Emax [1],EC50 (GST-RORγ LBD (263-509)),Emax (GST-RORγ LBD (263-509); [5]),% Remaining (T = 60 min) [2],half-life [2],microsomal CLint [2],half-life [3],microsomal CLint [3],% Remaining (T = 60 min) [3],EC50 (human PBMC (Th17 cells)),Emax (human PBMC (Th17 cells)),further results
CCS(=O)(=O)c1ccc(CC(=O)Nc2cc(Cl)c(-c3ccc(S(=O)(=O)C4CC4)cc3)c(Cl)c2)cc1 [Example 6],13 nM,42.1%,3.7 nM,171%,78.60%,> 2.42 h,< 9.6 µL/min/mg,> 2.42 h,< 9.6 µL/min/mg,82%,49.2 nM,254%,–
"COCC(C(=O)Nc1cc(Cl)c(-c2ccc(S(=O)(=O)C3CC3)cc2)c(Cl)c1)c1ccc(S(C)(=O)=O)cc1 (single isomer, unassigned) [Example 34, (S)—N-(2,6-dichloro-4′-(cyclopropylsulfonyl)-[1,1′-biphenyl]-4-yl)-3-methoxy-2-(4-(methylsulfonyl)phenyl)propanamide or (R)—N-(2,6-dichloro-4′-(cyclopropylsulfonyl)-[1,1′-biphenyl]-4-yl)-3-methoxy-2-(4-(methylsulfonyl)phenyl)propanamide]",67 nM,70.7%,5.1 nM,191%,74.5%,> 2.42 h,< 9.6 µL/min/mg,1.48 h,15.6 µL/min/mg,62.4%,57.2 nM,195%,–
"CCS(=O)(=O)c1ccc(-c2c(Cl)cc(NC(=O)C(COC)c3ccc(S(C)(=O)=O)cc3)cc2Cl)cc1 (stereo not shown) [Example 19, N-(2,6-Dichloro-4′-(ethylsulfonyl)-[1,1′-biphenyl]-4-yl)-3-methoxy-2-(4-(methylsulfonyl)phenyl)propionamide]",123 nM,91.4%,–,–,23.10%,0.487 h,47.4 µL/min/mg,1.78 h,13 µL/min/mg,60%,32.1 nM,232%,"CL_obs ([4]; IV 1 mg/kg, values marked **): 26.0** mL/min/kg; AUC(0-t) ([4]; mouse, plasma, IV 1 mg/kg): 647 ng·h/mL; Cmax ([4]; mouse, plasma, IV 1 mg/kg): 932 ng/mL; half-life ([4]; mouse, plasma, IV 1 mg/kg): 0.63 h; Vd ([4]; mouse, plasma, IV 1 mg/kg, values marked *, read-out: Vss): 1.09 L/kg; bioavailability ([4]; mouse, plasma, Po 5 mg/kg vs IV 1 mg/kg): 29.7%; AUC(0-t) ([4]; mouse, plasma, Po 5 mg/kg): 924 ng·h/mL; Cmax ([4]; mouse, plasma, Po 5 mg/kg): 419 ng/mL; half-life ([4]; mouse, plasma, Po 5 mg/kg): 1.51 h"
